These results are taken from US20240059655A1, “HETEROCYCLIC G-PROTEIN-COUPLED RECEPTOR 52 (GPR52) AGONISTS” (Board of Regents, The University of Texas System, priority 2020, published 2024).

As a reminder, the Emax is the maximal effect, on the per cent scale that the assay sets.

For test [1], the target named is T1, human GPR52 (Homo sapiens (Human), UniProt Q9Y2T5). The test is described as follows: Glosensor cAMP assay in HEK293 cells transiently expressing human GPR52. The class given is cell-based. A general note: Cyclic AMP is a second messenger, typically raised through Gs and lowered through Gi signalling.
Target sequence in this assay (Q9Y2T5 whole entry): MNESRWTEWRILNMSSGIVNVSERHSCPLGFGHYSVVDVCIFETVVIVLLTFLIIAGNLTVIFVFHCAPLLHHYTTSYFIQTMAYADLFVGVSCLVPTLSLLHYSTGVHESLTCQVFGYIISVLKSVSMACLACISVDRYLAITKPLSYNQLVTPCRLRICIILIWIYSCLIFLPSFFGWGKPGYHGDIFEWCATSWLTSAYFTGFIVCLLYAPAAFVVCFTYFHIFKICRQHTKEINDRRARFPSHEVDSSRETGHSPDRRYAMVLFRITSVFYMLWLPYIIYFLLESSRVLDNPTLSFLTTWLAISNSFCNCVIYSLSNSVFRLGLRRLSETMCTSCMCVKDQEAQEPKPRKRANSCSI
The target of test [2] is T1, human GPR52. The test is described as follows: TANGO β-arrestin recruitment assay in HTLA cells expressing GPR52 TANGO construct. The note with it: read-out: β-Arrestin Recruitment Emax (%). A general note: Activated receptors often draw arrestin, which recruitment assays turn into a signal.
Target sequence in this assay (Q9Y2T5 whole entry, looked up, change not shown): as the sequence (Q9Y2T5 whole entry) above
The test system of test [3] is GPR52. Particulars: relative to compound 4a.
Procedure: Bias factor calculations. Mean efficacy (Emax) and potency (EC50) were taken from at least three independent experiments for all compounds tested in both the cAMP and β-arrestin recruitment assays. Formulas for bias factor calculations were adapted from Kenakin^37. […] A ΔΔ log(Emax/EC50) value for each compound was calculated by subtraction of Δ log(Emax/EC50)β-arrestin from Δ log(Emax/EC50)cAmP. The inverse log of this ΔΔ log(Emax/EC50) value is the G protein bias factor. Conversely, the β-arrestin bias factor is calculated from the inverse log of ΔΔ log(Emax/EC50) when Δ log(Emax/EC50)cAmP is subtracted from Δ log(Emax/EC50)β-arrestin.
[4] abbreviates: HEK293, cAMP assay, relative to compound 4 as 100% and 0.5% DMSO as 0%, mean ± SEM, "—" not detected, read-out: Emax (%).

Read-outs that look alike come from different tables or passages of the source.

As to `COC(=O)C(NC(=O)c1cccc(Nc2cc(Cc3cccc(C(F)(F)F)c3)ccn2)c1)[C@@H](C)O` (stereo in doubt) [PW0673, Methyl (3-((4-(3-(trifluoromethyl)benzyl)pyridin-2-yl)amino)benzoyl)-D-allothreoninate], the maximal response (Emax) in test [1] (setting [4]) was 164 ± 12%.

For the compound `O=C(N[C@@H](CO)C(O)c1ccccc1)c1cccc(Nc2cc(Cc3cccc(C(F)(F)F)c3)ccn2)c1` (stereo in doubt) [PW0675, N-((1S)-1,3-Dihydroxy-1-phenylpropan-2-yl)-3-((4-(3-(trifluoromethyl)benzyl)pyridin-2-yl)amino)benzamide], the maximal effect (Emax) in test [1] (setting [4]) was 188 ± 11%. Same read-out and setting: in the case of `O=C(NCCO)c1cccc2c1CCN2c1ccnc(Cc2cc(F)cc(C(F)(F)F)c2)n1` [Compound 12a, 1-(2-(3-Fuoro-5-(trifluoromethyl)benzyl)pyrimidin-4-yl)-N-(2-hydroxyethyl)indoline-4-carboxamide] it was 144%; in that of `O=C(NCCO)c1cccc2c1CCN2c1nccc(Cc2cc(F)cc(C(F)(F)F)c2)n1` [Compound 12d, 1-(4-(3-Fluoro-5-(trifluoromethyl)benzyl)pyrimidin-2-yl)-N-(2-hydroxyethyl)indoline-4-carboxamide], 138 ± 8%. As to `Cc1c(Cc2cc(F)cc(C(F)(F)F)c2)cnnc1N1CCc2c(C(=O)NCCO)cccc21` [Compound 12e, 1-(5-(3-Fluoro-5-(trifluoromethyl)benzyl)-4-methylpyridazin-3-yl)-N-(2-hydroxyethyl)indoline-4-carboxamide], the “decreased EC50 (loss of potency) on adding a 2-substituent to compound 12b” value in test [1] is on record as above 4 fold. Also, in test [1] (HEK293), the Emax was found to be 119 ± 6%. As for `O=C(NCCO)c1cccc2c1CCN2c1nncc(Cc2cc(F)cc(C(F)(F)F)c2)c1Cl` [Compound 12f, 1-(4-Chloro-5-(3-fluoro-5-(trifluoromethyl)benzyl)pyridazin-3-yl)-N-(2-hydroxyethyl)indoline-4-carboxamide], the maximum response (Emax) in test [1] (HEK293) stood at 97 ± 7%. Also, the “decreased EC50 (loss of potency) on adding a 2-substituent to compound 12b” value in test [1] (cAMP EC50) is recorded as above 4 fold.

Consider `O=C(c1cc(F)cc(C(F)(F)F)c1)c1cc(N2CCc3c(C(=O)NCCO)cccc32)ncn1` [Compound 25b, 1-(6-(3-Fluoro-5-(trifluoromethyl)benzoyl)pyrimidin-4-yl)-N-(2-hydroxyethyl)indoline-4-carboxamide], for which the Emax in test [1] (setting [4]) amounted to 22 ± 3%.

As for `O=C(c1cccc(C(F)(F)F)c1)c1cc(N2CCc3c(C(=O)NCCO)cccc32)ncn1` [Compound 25c, N-(2-Hydroxyethyl)-1-(6-(3-(trifluoromethyl)benzoyl)pyrimidin-4-yl)indoline-4-carboxamide], in test [1] (setting [4]), the maximal effect (Emax) was found to be 22 ± 4%. Same read-out and setting: under `O=C(NCCO)c1cccc2c1CCN2c1nccc(C(O)c2cc(F)cc(C(F)(F)F)c2)n1` (stereo not drawn) [Compound 25d] stands 130 ± 9%; under `O=C(NCCO)c1cccc2c1CCN2c1cc(C(O)c2cc(F)cc(C(F)(F)F)c2)ncn1` (stereo not drawn) [Compound 25e], 134 ± 28%; under `O=C(NCCO)c1cccc2c1CCN2c1nccc(C(F)c2cc(F)cc(C(F)(F)F)c2)n1` (stereo not drawn) [Compound 25g, 1-(4-(Fluoro(3-fluoro-5-(trifluoromethyl)phenyl)methyl)pyrimidin-2-yl)-N-(2-hydroxyethyl)indoline-4-carboxamide], 144 ± 9%. `O=C(NCCO)c1cccc2c1CCN2c1cc(C(F)c2cccc(C(F)(F)F)c2)ncn1` (stereo not drawn) [Compound 25i, 1-(6-(Fluoro(3-(trifluoromethyl)phenyl)methyl)pyrimidin-4-yl)-N-(2-hydroxyethyl)indoline-4-carboxamide]: in test [1] (setting [4]), the Emax worked out at 83 ± 5%. Same read-out and setting: in the case of `O=C(NCCO)c1cccc2c1CCN2c1cc(Nc2cccc(C(F)(F)F)c2)ncn1` [Compound 25j] it was 81 ± 2%; in that of `O=C(NCCO)c1cccc2c1CCN2c1cc(Oc2cccc(C(F)(F)F)c2)ncn1` [Compound 25k, N-(2-Hydroxyethyl)-1-(6-(3-(trifluoromethyl)phenoxy)pyrimidin-4-yl)indoline-4-carboxamide], 99 ± 4%.

Take `O=C(NCCO)c1cccc2c1CCN2c1cc(Sc2cccc(C(F)(F)F)c2)ncn1` [Compound 25l]: the Emax in test [1] (setting [4]) was determined as 123 ± 6%. On the same count and under the same terms, under `O=C(c1cccc2c1CCN2c1cc(Cc2cc(F)cc(C(F)(F)F)c2)ncn1)N1CC(O)C1` [Compound 30e, (1-(6-(3-Fluoro-5-(trifluoromethyl)benzyl)pyrimidin-4-yl)indolin-4-yl)(3-hydroxyazetidin-1-yl)methanone] stands 111 ± 10%; under `O=C(c1cccc2c1CCN2c1cc(Cc2cc(F)cc(C(F)(F)F)c2)ncn1)N(CCO)CCO` [Compound 30g, 1-(6-(3-Fluoro-5-(trifluoromethyl)benzyl)pyrimidin-4-yl)-N,N-bis(2-hydroxyethyl)indoline-4-carboxamide], 119 ± 15%.

In turn, `O=C(N[C@H]1CC[C@H](O)CC1)c1cccc(Nc2cc(Cc3cccc(C(F)(F)F)c3)ccn2)c1` [PW0674, N-((1r,4R)-4-Hydroxycyclohexyl)-3-((4-(3-(trifluoromethyl)benzyl)pyridin-2-yl)amino)benzamide] showed an Emax in test [1] (HEK293) of 131 ± 13%.

In turn, `O=C(NC(CO)CO)c1cccc(Nc2cc(Cc3cccc(C(F)(F)F)c3)ccn2)c1` [PW0676, N-(1,3-Dihydroxypropan-2-yl)-3-((4-(3-(trifluoromethyl)benzyl)pyridin-2-yl)amino)benzamide] displayed an Emax in test [1] (HEK293) of 214 ± 19%. For the same compound, the Emax in test [2] was determined as 125 ± 12%. Also, in test [3], the “G Protein Bias Factor” value stood at 66.3 and the “β-Arrestin Bias Factor” value came out at 0.015. Taken in the same sequence, the figures for `O=C(NCC(O)CO)c1cccc(Nc2cc(Cc3cccc(C(F)(F)F)c3)ccn2)c1` (stereo not drawn) [PW0677, N-(2,3-Dihydroxypropyl)-3-((4-(3-(trifluoromethyl)benzyl)pyridin-2-yl)amino)benzamide] were 268 ± 12%, 127 ± 7%, 63.2 and 0.016.

For `O=C(c1cccc(Nc2cc(Cc3cccc(C(F)(F)F)c3)ccn2)c1)N1CCOCC1` [PW0823], the Emax in test [1] (HEK293) turned out to be 93 ± 7%. Same read-out and setting: in the case of `O=C(NCC(F)F)c1cccc(Nc2cc(Cc3cccc(C(F)(F)F)c3)ccn2)c1` [PW0824] it was 152 ± 7%; in that of `COCCNC(=O)c1cccc(Nc2cc(Cc3cccc(C(F)(F)F)c3)ccn2)c1` [PW0825, N-(2-Methoxyethyl)-3-((4-(3-(trifluoromethyl)benzyl)pyridin-2-yl)amino)benzamide], 131 ± 15%. Compound `O=C(NCCCCO)c1cccc(Nc2cc(Cc3cccc(C(F)(F)F)c3)ccn2)c1` [PW0832, N-(4-Hydroxybutyl)-3-((4-(3-(trifluoromethyl)benzyl)pyridin-2-yl)amino)benzamide] had an Emax in test [1] (HEK293) of 129 ± 8%. Same read-out and setting: under `Cc1c(Nc2cc(Cc3ccc(Cl)cc3F)ccn2)cccc1C(=O)NCCO` [PW0868, 3-((4-(4-Chloro-2-fluorobenzyl)pyridin-2-yl)amino)-N-(2-hydroxyethyl)-2-methylbenzamide] stands 131 ± 8%.
